Like-named read-outs stand apart in the source and are kept apart here.
What was measured:
[1] = test system: isolated guinea pig hearts; experiment: coronary flowthrough-increasing effectiveness on isolated guinea pig hearts according to Langendorff; conditions: Cavia porcellus, 25 μg/ml in tyrode solution, Langendorff heart; for activation at 25 µg/mL: read-out: flowthrough (coronary), percentage change in comparison with the initial value
Experimental: After achieving the stationary state in the 30th minute, the hearts were each infused with 50 ml. tyrode solution with a content of test substance of, in each case, 25 μg./ml. Each test substance was tested on 3-6 hearts.
In each case, there was measured the inotropism, the flowthrough and the frequency, whereby the values given in Table I are average values of the percentage changes in comparison with the starting values.

[2] = test system: isolated rat aorta preparations; experiment: spasmolytic effectiveness on isolated rat aorta preparations (noradrenaline- and potassium chloride-induced contractions)
female NMRI-albino mice = experiment: examination of acute toxicity, i.v., female NMRI-albino mice; type: in vivo; conditions: within 24 hours; for Frequency of death with an intravenous dose of 100 mg/kg: 100 mg/kg i.v.; for Frequency of death with an intravenous dose of 200 mg/kg: 200 mg/kg i.v.; for Frequency of death with an intravenous dose of 50 mg/kg: 50 mg/kg i.v.
Experimental: (§1) . The compounds were injected to at least 3 animals per dose. If no animal had yet been died following to the highest dose which was administered, no more doses of substances were tested. In case of doubt, the examination was repeated with at least 3 more animals applying the same dose.
(§2) The rate of death within 24 hours after administration was observed.
(§3) In table IX, the determined rates of death as well as the LD50 -ranges evaluated therefrom are shown.

[3] = as above; type: in vivo; conditions: mouse, in vivo, iv, mice, 24 hours; read-out: Evaluated LD50-range
Experimental: as §1, §2, §3

[4] = read-out: frequency, percentage change in comparison with the initial value
[5] = read-out: inotropism, percentage change in comparison with the initial value
[6] = read-out: ED50 for spasmolytic action, Noradrenaline spasm (50% inhibition)
[7] = read-out: ED50 for spasmolytic action, potassium chloride spasm (50% inhibition)

| SMILES | activation at 25 µg/mL [1] [%] | inhibition at 25 µg/mL [1, 4] [%] | inhibition at 25 µg/mL [1, 5] [%] | IC50 [2, 6] [µM] | IC50 [2, 7] [µM] | Frequency of death with an intravenous dose of 100 mg/kg (female NMRI-albino mice) | Frequency of death with an intravenous dose of 200 mg/kg (female NMRI-albino mice) | LD50 at 24 h [3] [mg/kg] | Frequency of death with an intravenous dose of 50 mg/kg (female NMRI-albino mice) | percent change from initial value at 25 µg/mL [1, 4] [%] |
| --- | --- | --- | --- | --- | --- | --- | --- | --- | --- | --- |
| Cn1c(=O)c2c(ncn2CCN[C@H]2CO[C@H]3[C@@H]2OC[C@@H]3O[N+](=O)[O-])n(C)c1=O [Example 2, 5-(2-Theophyllin-7-ylethyl)-amino-5-desoxy-1.4;3.6-dianhydro-L-iditol 2-nitrate] | 34.7 | -3.5 | 4.6 | 4.2 | 30.5 | 0/3 | 1/3 | ≥ 200 | – | – |
| Cn1c(=O)c2c(ncn2CCCCN[C@H]2CO[C@H]3[C@@H]2OC[C@@H]3O[N+](=O)[O-])n(C)c1=O [Example 3, 5-(4-Theophyllin-7-ylbutyl)-amino-5-desoxy-1.4;3.6-dianhydro-L-iditol 2-nitrate] | 36.4 | 4.8 | 3.82 | 2.6 | 3.6 | – | 0/6 | > 200 | – | – |
| Cn1c(=O)c2c(ncn2CCCCCN[C@H]2CO[C@H]3[C@@H]2OC[C@@H]3O[N+](=O)[O-])n(C)c1=O [Example 4, 5-(5-Theophyllin-7-ylpentyl)-amino-5-desoxy-1.4;3.6-dianhydro-L-iditol 2-nitrate] | 55.7 | 8.41 | 5.44 | 2.7 | 3.8 | 0/10 | 10/10 | 100 to 200 | – | – |
| Cn1c(=O)c2c(ncn2CCCCCCN[C@H]2CO[C@H]3[C@@H]2OC[C@@H]3O[N+](=O)[O-])n(C)c1=O [Example 5, 5-(6-Theophyllin-7-ylhexyl)-amino-5-desoxy-1.4;3.6-dianhydro-L-iditol 2-nitrate] | 61.9 | 11.1 | 43.3 | 0.36 | 2.4 | 4/10 | 10/10 | ≥ 100 | 0/10 | – |
| Cn1c(=O)c2c(ncn2CC(O)CN[C@H]2CO[C@H]3[C@@H]2OC[C@@H]3O[N+](=O)[O-])n(C)c1=O (stereo partly drawn) [Example 6, 5-(2-Hydroxy-3-theophyllin-7-ylpropyl)-amino-5-desoxy-1.4;3.6-dianhydro-L-iditol 2-nitrate] | 53.3 | -3.39 | -4.5 | 1.12 | 18 | – | – | – | – | – |
| Cn1cnc2c1c(=O)n(CCCN[C@H]1CO[C@H]3[C@@H]1OC[C@@H]3O[N+](=O)[O-])c(=O)n2C [Example 7c, 5-[3-(3,7-Dimethylxanthin-1-yl)-propylamino]-5-desoxy-1.4;3.6-dianhydro-L-iditol 2-nitrate] | 28.9 | – | -10.5 | – | – | – | 0/6 | > 200 | – | 0 |
| CC(C)Cn1c(=O)n(C)c(=O)c2c1ncn2CCCN[C@H]1CO[C@H]2[C@@H]1OC[C@@H]2O[N+](=O)[O-] [Example 8c, 5-[3-(3-Isobutyl-1-methylxanthin-7-yl)-propylamino]-5-desoxy-1.4;3.6-dianhydro-L-iditol 2-nitrate] | – | – | – | – | – | 0/3 | 11/13 | 100 to 200 | – | – |
| Cn1c(=O)c2c(ncn2CCCN[C@@H]2CO[C@H]3[C@@H]2OC[C@@H]3O[N+](=O)[O-])n(C)c1=O [Example 10c, 5-(3-Theophyllin-7-ylpropyl)-amino-5-desoxy-1.4;3.6-dianhydro-D-glucitol 2-nitrate] | 13 | 5.6 | 6.4 | – | – | – | 0/6 | > 200 | – | – |
| Cn1c(=O)c2c(ncn2CCCN[C@H]2CO[C@H]3[C@@H]2OC[C@H]3O[N+](=O)[O-])n(C)c1=O [Example 11d, 2-(3-Theophyllin-7-ylpropyl)-amino-2-desoxy-1.4;3.6-dianhydro-D-glucitol 5-nitrate] | – | – | – | – | – | – | 0/6 | > 200 | – | – |
| Cn1c(=O)c2c(ncn2CCCN[C@@H]2CO[C@H]3[C@@H]2OC[C@H]3O[N+](=O)[O-])n(C)c1=O [Example 12d, 5-(3-Theophyllin-7-ylpropyl)-amino-5-desoxy-1.4;3.6-dianhydro-D-mannitol 2-nitrate] | – | – | – | – | – | – | 0/6 | > 200 | – | – |
| Nc1ncnc2c1ncn2CCN[C@H]1CO[C@H]2[C@@H]1OC[C@@H]2O[N+](=O)[O-] [Example 13, 5-(2-Adenin-9-ylethyl)-amino-5-desoxy-1.4;3.6-dianhydro-L-iditol 2-nitrate] | 12.2 | – | -2.3 | – | – | – | 0/6 | > 200 | – | 0 |
| Nc1ncnc2c1ncn2CCCN[C@H]1CO[C@H]2[C@@H]1OC[C@@H]2O[N+](=O)[O-] [Example 14, 5-(3-Adenin-9-ylpropyl)-amino-5-desoxy-1.4;3.6-dianhydro-L-iditol 2-nitrate] | 55.8 | – | -3.8 | 1.4 | 43.9 | – | – | – | – | 0 |
| Nc1ncnc2c1ncn2CCCCN[C@H]1CO[C@H]2[C@@H]1OC[C@@H]2O[N+](=O)[O-] [Example 15, 5-(4-Adenin-9-ylbutyl)-amino-5-desoxy-1.4;3.6-dianhydro-L-iditol 2-nitrate] | 47.1 | 3.45 | -3.85 | – | – | 3/3 | 3/3 | < 50 | 3/3 | – |
| Nc1ncnc2c1ncn2CCCCCN[C@H]1CO[C@H]2[C@@H]1OC[C@@H]2O[N+](=O)[O-] [Example 16, 5-(5-Adenin-9-ylpentyl)-amino-5-desoxy-1.4;3.6-dianhydro-L-iditol 2-nitrate] | 22.5 | 6.8 | -6.5 | – | – | 0/10 | 10/10 | 100 to 200 | – | – |
| Nc1ncnc2c1ncn2CCCCCCN[C@H]1CO[C@H]2[C@@H]1OC[C@@H]2O[N+](=O)[O-] [Example 17, 5-(6-Adenin-9-ylhexyl)-amino-5-desoxy-1.4;3.6-dianhydro-L-iditol 2-nitrate] | 60.6 | 3.6 | 11.5 | – | – | 2/3 | 3/3 | 50 to 100 | 0/10 | – |
